Reference: ChEMBL document CHEMBL1153291, “Synthesis and structure-activity relationships of novel benzofuran farnesyltransferase inhibitors” (Bioorg Med Chem Lett, 2009)

Columns and labels:
[1] = Cmax in mouse at 25 mg/kg, po; format: ADME, organism-based; design: dose 25 mg/kg, route oral; details: in vivo
QG-56 [2] = experiment: Antitumor activity against human QG56 cells xenografted in mouse assessed as reduction of tumor volume at 200 mg/kg, po administered 5 times a week for 2 weeks; format: functional, organism-based; design: dose 200 mg/kg
[3] = Cmax in mouse at 100 mg/kg, po; format: ADME, organism-based; design: dose 100 mg/kg, route oral; details: in vivo
QG-56 [4] = experiment: Toxicity in mouse xenografted with human QG56 cells assessed as reduction of body weight loss at 200 mg/kg, po administered 5 times a week for 2 weeks; format: functional, organism-based; design: dose 200 mg/kg
[5] = target: Protein farnesyltransferase (Homo sapiens, UniProt P49354+P49356); experiment: Inhibition of human FTase; format: protein-complex assay
QG-56 [6] = experiment: Antiproliferative activity against human QG56 cells; format: functional, cell-based
[7] = Oral bioavailability in mouse at 100 mg/kg; format: ADME, organism-based; details: in vivo
[8] = AUC (0 to 24 hrs) in mouse at 25 mg/kg, iv; format: ADME, organism-based; design: time < 24 hr, dose 25 mg/kg, route intravenous; details: plasma
[9] = Apparent oral clearance in mouse at 100 mg/kg, po; format: ADME, organism-based; design: dose 100 mg/kg, route oral; details: in vivo
[10] = Half life in mouse at 25 mg/kg, po; format: ADME, organism-based; design: dose 25 mg/kg, route oral; details: in vivo
[11] = AUC (0 to 24 hrs) in mouse at 100 mg/kg, po; format: ADME, organism-based; design: time < 24 hr, dose 100 mg/kg, route oral; details: plasma
[12] = Apparent oral clearance in mouse at 25 mg/kg, po; format: ADME, organism-based; design: dose 25 mg/kg, route oral; details: in vivo
[13] = AUC (0 to 24 hrs) in mouse at 25 mg/kg, po; format: ADME, organism-based; design: time < 24 hr, dose 25 mg/kg, route oral; details: plasma
[14] = Half life in mouse at 100 mg/kg, po; format: ADME, organism-based; design: dose 100 mg/kg, route oral; details: in vivo
[15] = Oral bioavailability in mouse at 25 mg/kg; format: ADME, organism-based; details: in vivo
[16] = Half life in mouse at 25 mg/kg, iv; format: ADME, organism-based; design: dose 25 mg/kg, route intravenous; details: in vivo

Row | Compound | IC50 [5] | IC50 (QG-56 [6]) | also measured
1 | Cn1cncc1[C@](N)(c1ccc(C#N)cc1)c1cc2cc([N+](=O)[O-])cc(-c3ccccc3)c2o1 | 49 nM | 206 nM | 
2 | Cn1cncc1C(O)(c1ccc(Cl)cc1)c1cc2cc([N+](=O)[O-])cc(-c3ccccc3)c2o1 (racemic) | 170 nM | 1880 nM | 
3 | Cn1cncc1C(O)(c1ccc(C(=O)OC(C)(C)C)cc1)c1cc2cc([N+](=O)[O-])cc(-c3ccccc3)c2o1 (racemic) | > 1000 nM | 6250 nM | 
4 | COc1ccc(C(O)(c2cc3cc([N+](=O)[O-])cc(-c4ccccc4)c3o2)c2cncn2C)cc1 (racemic) | 250 nM | 4970 nM | 
5 | Cn1cncc1C(O)(c1ccc(C#N)cc1)c1cc2cc([N+](=O)[O-])cc(-c3cccc(C#N)c3)c2o1 (racemic) |  | 22.9 nM | 
6 | Cc1cccc(-c2cc([N+](=O)[O-])cc3cc(C(O)(c4ccc(C#N)cc4)c4cncn4C)oc23)c1 (racemic) | 11 nM | 23.2 nM | 
7 | COc1cccc(-c2cc([N+](=O)[O-])cc3cc(C(O)(c4ccc(C#N)cc4)c4cncn4C)oc23)c1 (racemic) | 8.5 nM | 38.8 nM | 
8 | COc1cccc(-c2cc(CN(C)C)cc3cc(C(O)(c4ccc(C#N)cc4)c4cncn4C)oc23)c1 (racemic) | 11 nM | 142 nM | 
9 | Cn1cncc1C(O)(c1ccc(Cl)cc1)c1cc2cc(C(=O)NN3CCOCC3)cc(-c3ccccc3)c2o1 (racemic) |  | 73.6 nM | 
10 | Cn1cncc1C(O)(c1ccc(C(=O)O)cc1)c1cc2cc([N+](=O)[O-])cc(-c3ccccc3)c2o1 (racemic) | 850 nM | > 10000 nM | 
11 | Cn1cncc1C(O)(c1ccc([N+](=O)[O-])cc1)c1cc2cc([N+](=O)[O-])cc(-c3ccccc3)c2o1 (racemic) | 30 nM | 547 nM | 
12 | Cn1cncc1C(O)(c1ccc(C#N)cc1)c1cc2cc([N+](=O)[O-])cc(-c3ccc(F)cc3)c2o1 (racemic) | 7.2 nM | 158 nM | 
13 | Cn1cncc1C(O)(c1ccc(Br)cc1)c1cc2cc([N+](=O)[O-])cc(-c3ccccc3)c2o1 (racemic) | 360 nM | 1480 nM | 
14 | Cn1cncc1C(O)(c1ccc(I)cc1)c1cc2cc([N+](=O)[O-])cc(-c3ccccc3)c2o1 (racemic) | 360 nM | > 10000 nM | 

More lines, main results first:

Row | IC50 [5] | Compound | IC50 (QG-56 [6]) | also measured
15 | 1.1 nM | Cn1cncc1[C@@](N)(c1ccc(C#N)cc1)c1cc2cc(C#N)cc(-c3cccc(F)c3)c2o1 | 2 nM | Cmax [1]: 1570 ng/mL; Activity (QG-56 [2]): Non-toxic; Cmax [3]: 5010 ng/mL; Activity (QG-56 [4]): Not toxic; bioavailability [7]: 51%; AUC(0-t) at 24 h [8]: 15400 ng·h/mL; CL/F [9]: 41 mL/min/kg; half-life [10]: 2.4 h; AUC(0-t) at 24 h [11]: 31300 ng·h/mL; CL/F [12]: 40.8 mL/min/kg; AUC(0-t) at 24 h [13]: 10200 ng·h/mL; half-life [14]: 12.3 h; bioavailability [15]: 66%; half-life [16]: 1.2 h
16 | 1.5 nM | Cn1cncc1[C@@](N)(c1ccc(C#N)cc1)c1cc2cc([N+](=O)[O-])cc(-c3ccccc3)c2o1 | 5.9 nM | 
17 | 1.2 nM | COc1cccc(-c2cc(C#N)cc3cc([C@](N)(c4ccc(C#N)cc4)c4cncn4C)oc23)c1 | 1.5 nM | 
18 | 0.7 nM | Cn1cncc1[C@@](N)(c1ccc(C#N)cc1)c1cc2cc(C#N)cc(-c3cccc(C#N)c3)c2o1 | 2 nM | 
19 | 0.8 nM | COc1cccc(-c2cc([N+](=O)[O-])cc3cc([C@](N)(c4ccc(C#N)cc4)c4cncn4C)oc23)c1 | 1.1 nM | 
20 | 6.3 nM | Cn1cncc1C(O)(c1ccc(C#N)cc1)c1cc2cc([N+](=O)[O-])cc(-c3cccc(F)c3)c2o1 (racemic) | 145 nM | 
21 | 3.4 nM | Cn1cncc1C(O)(c1ccc(C#N)cc1)c1cc2cc([N+](=O)[O-])cc(-c3ccc(C#N)cc3)c2o1 (racemic) | 32.6 nM | 
22 | 3.2 nM | COC(=O)c1cc(-c2cccc(OC)c2)c2oc(C(O)(c3ccc(C#N)cc3)c3cncn3C)cc2c1 (racemic) | 36.3 nM | 
23 | 3.3 nM | Cn1cncc1C(O)(c1ccc(C#N)cc1)c1cc2cc([N+](=O)[O-])cc(-c3ccccc3F)c2o1 (racemic) | 89.5 nM | 
24 | 2.4 nM | Cn1cncc1C(O)(c1ccc(C#N)cc1)c1cc2cc(C#N)cc(-c3ccccc3)c2o1 (racemic) | 14.5 nM | 
25 | 0.9 nM | COc1cccc(-c2cc(C(N)=O)cc3cc(C(O)(c4ccc(C#N)cc4)c4cncn4C)oc23)c1 (racemic) | 8.2 nM | 
26 | 2.6 nM | COc1cccc(-c2cc(C(=O)NN3CCOCC3)cc3cc(C(O)(c4ccc(C#N)cc4)c4cncn4C)oc23)c1 (racemic) |  | 
27 | 4 nM | COc1ccc(-c2cc([N+](=O)[O-])cc3cc(C(O)(c4ccc(C#N)cc4)c4cncn4C)oc23)cc1 (racemic) | 36 nM | 
28 | 2 nM | COc1cccc(-c2cc(C=O)cc3cc(C(O)(c4ccc(C#N)cc4)c4cncn4C)oc23)c1 (racemic) | 15.2 nM | 
29 | 1 nM | COc1cccc(-c2cc(CO)cc3cc(C(O)(c4ccc(C#N)cc4)c4cncn4C)oc23)c1 (racemic) | 16.8 nM | 
30 | 6.4 nM | Cn1cncc1C(O)(c1ccc(C#N)cc1)c1cc2cc([N+](=O)[O-])cc(-c3ccccc3)c2o1 (racemic) | 1480 nM | 
